Experimental data reported in patent publication EP2604265A1, “P2x7 antagonists as frontline or adjunctive treatment against status epilepticus” (Royal College of Surgeons in Ireland (RCSI), priority 2011, dated 2013).

Assays:
glutamate receptors = experiment: Fura-2 calcium microfluorimetry, glutamate-evoked calcium entry; format: cell-based, mouse; conditions: cultured hippocampal neurons; glutamate 100 µM; BBG 1 µM
Method: (§1) Hippocampal neurons were prepared as described previously (Diaz-Hernandez et al., 2008). Briefly, hippocampi were obtained from E17 mouse embryos and, after dissection and washing three times in Ca^2+/Mg^2+-free HBSS, tissue was digested in the same solution with 0.25% trypsin for 15 min at 37°C. Hippocampi were then washed three times in Ca^2+/Mg^2+-free HBSS and dissociated with a firepolished Pasteur pipette. Cells were counted, resuspended in plating medium (MEM, 10% fetal bovine serum, 0.6% glucose) and plated at a density of 5,000 cells/cm^2 on poly-L-lysine coated coverslips (1 mg/ml). After plating, neurons were cultured for 24-72 h in neuronal culture medium (Neurobasal, B-27, glutamax-I). For biochemical experiments, hippocampal neurons were plated on polylysine-coated (1 mg/ml) 60-mm plates at a density of 200,000 cells/cm^2, and cultured for 72 h in neuronal culture medium. AraC was added at a final concentration of 5 µM after 2 days in culture.
(§2) Calcium microfluorimetric analysis in single neurons was carried out according to (Diaz-Hernandez et al., 2001). […]
(§3) Neurons were visualized using a Plan Fluor x40 S/0.5-1.3 oil lens. […] The background was subtracted at each wavelength and the 340 / 380 ratio was calculated. The data are represented as the normalized F340/F380 fluorescence ratio, which increases as [Ca^2+]i increases.

P2X7R = target: T1, P2X7R (Mus musculus, UniProt Q9Z1M0); experiment: Fura-2 calcium microfluorimetry, BzATP-evoked calcium entry; format: cell-based; conditions: cultured hippocampal neurons; BzATP 100 µM; BBG 1 µM
T1 construct: endogenous in cells; host or cells: primary hippocampal neurons from E17 mouse embryos
T1 sequence (Q9Z1M0 1-595): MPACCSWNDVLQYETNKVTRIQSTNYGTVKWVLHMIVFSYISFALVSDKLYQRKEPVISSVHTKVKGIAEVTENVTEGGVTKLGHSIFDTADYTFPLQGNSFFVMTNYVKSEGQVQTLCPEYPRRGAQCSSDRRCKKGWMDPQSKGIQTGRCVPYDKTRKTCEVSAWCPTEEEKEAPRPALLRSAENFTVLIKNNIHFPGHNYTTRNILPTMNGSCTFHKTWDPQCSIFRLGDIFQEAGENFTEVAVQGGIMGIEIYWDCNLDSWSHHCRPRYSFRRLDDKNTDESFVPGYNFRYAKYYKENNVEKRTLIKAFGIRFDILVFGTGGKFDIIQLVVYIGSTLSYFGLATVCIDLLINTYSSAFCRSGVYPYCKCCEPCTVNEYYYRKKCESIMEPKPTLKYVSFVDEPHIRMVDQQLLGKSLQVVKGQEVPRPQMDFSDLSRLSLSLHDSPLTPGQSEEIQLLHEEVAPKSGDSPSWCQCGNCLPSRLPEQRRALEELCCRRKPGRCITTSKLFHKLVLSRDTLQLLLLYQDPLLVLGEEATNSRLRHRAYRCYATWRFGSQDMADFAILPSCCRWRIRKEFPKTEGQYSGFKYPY
Method: as §1, §2, §3

IL-1β = experiment: Western blot of hippocampal IL-1β after SE; format: in vivo, mice; conditions: ipsilateral hippocampus, 24 h after KA
Method: Adult male C57BL/6 mice (20-25 g) were obtained from Harlan UK (Blackthorn, UK). Mice were first anesthetized using isoflurane (3-5%) and maintained normothermic by means of a feedback-controlled heat blanket (Harvard Apparatus Ltd, Kent, UK). Mice were next placed in a stereotaxic frame and three partial craniectomies performed to affix cortical skull-mounted EEG electrodes (Bilaney Consultants Ltd, Sevenoaks, UK). EEG was recorded using a Grass Comet XL digital EEG (Medivent Ltd, Lucan, Ireland). A guide cannula was affixed (coordinates from Bregma: AP = 0.94; L = 2.85 mm) and the assembly fixed in place with dental cement. Anesthesia was then discontinued and freely moving mice were placed inside a clear perspex recording chamber. […]
Western blotting was performed as previously described (Engel et al., 2010). […] Protein concentration was determined and then 20 or 50 µg samples boiled in gel-loading buffer and separated by 10, 12 or 15% sodium dodecyl sulphate-polyacrylamide gel electrophoresis. […] Gel band image densities were captured using a Fuji-film LAS-3000 and analyzed using Alpha-EaseFC4.0 software as described (Engel et al., 2010).

Compound: CCOc1ccc(Nc2ccc(C(=C3C=CC(=[N+](CC)Cc4cccc(S(=O)(=O)[O-])c4)C=C3C)c3ccc(N(CC)Cc4cccc(S(=O)(=O)O)c4)cc3C)cc2)cc1 [BBG, Brilliant Blue G]
- glutamate-induced calcium entry (glutamate receptors): failed to alter
- P2X7R-gated (BzATP-induced) calcium entry (P2X7R): effective to block
- IL-1β induction after SE (IL-1β): significantly reduced
